Test results: the supplement of paper PMC10307832

Key:
Assay in all cases: relative viability (nuclei count vs DMSO), 5 days (fraction); higher = more cells survive
LU99A = test system: LU99A
How it was run: (§1)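 Lung cancer cell lines in 1536-well plates were dosed by pin tool the day after seeding, either with one drug alone or with a fixed anchor-drug dose plus five library-drug doses (not always all listed) in √10 steps. After 5 days, cells were fixed and their nuclei stained in one step (final 0.05% Triton X-100, 1% formaldehyde, 1 ug/ml Hoechst), then counted on 4× images. Relative viability is the nuclei count in treated wells divided by that in vehicle wells. Values are medians of duplicate plates.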

SK-LU-1 = test system: SK-LU-1
How it was run: as §1

NCI-H1437 = test system: NCI-H1437
How it was run: as §1

NCI-H460 = test system: NCI-H460
How it was run: as §1

HCC-366 = test system: HCC-366
How it was run: as §1

NCI-H1651 = test system: NCI-H1651
How it was run: as §1

NCI-H358 = test system: NCI-H358
How it was run: as §1

NCI-H1734 = test system: NCI-H1734
How it was run: as §1

NCI-H1975 = test system: NCI-H1975
How it was run: as §1

NCI-H2085 = test system: NCI-H2085
How it was run: as §1

NCI-H1793 = test system: NCI-H1793
How it was run: as §1

NCI-H2023 = test system: NCI-H2023
How it was run: as §1

NCI-H838 = test system: NCI-H838
How it was run: as §1

NCI-H1650 = test system: NCI-H1650
How it was run: as §1

NCI-H441 = test system: NCI-H441
How it was run: as §1

NCI-H2342 = test system: NCI-H2342
How it was run: as §1

NCI-H1355 = test system: NCI-H1355
How it was run: as §1

COR-L23 = test system: COR-L23
How it was run: as §1

LOU-NH91 = test system: LOU-NH91
How it was run: as §1

BEN = test system: BEN
How it was run: as §1

In the case of O=c1cc(N2CCOCC2)oc2c(-c3cccc4c3sc3ccccc34)cccc12 + Nc1ncn([C@H]2C[C@H](O)[C@@H](CO)O2)c(=O)n1 [Decitabine] (partner 2 µM), the relative viability (LU99A; first compound 0.01 µM) is reported as 0.906, the relative viability (LU99A; first compound 0.03162 µM) is reported as 1.01 and the relative viability (LU99A; first compound 0.1 µM) is reported as 0.993. For the same compound, the relative viability (LU99A; first compound 0.3162 µM) was 0.827, the relative viability (LU99A; first compound 1 µM) was 0.978 and the relative viability (SK-LU-1; first compound 0.01 µM) was 0.641. It also gave a relative viability (SK-LU-1; first compound 0.03162 µM) of 0.621, a relative viability (SK-LU-1; first compound 0.1 µM) of 0.596 and a relative viability (SK-LU-1; first compound 0.3162 µM) of 0.621. It also gave a relative viability (SK-LU-1; first compound 1 µM) of 0.661, a relative viability (NCI-H1437; first compound 0.01 µM) of 0.587 and a relative viability (NCI-H1437; first compound 0.03162 µM) of 0.562. The relative viability (NCI-H1437; first compound 0.1 µM) was 0.638, the relative viability (NCI-H1437; first compound 0.3162 µM) was 0.549 and the relative viability (NCI-H1437; first compound 1 µM) was 0.625. It also gave a relative viability (NCI-H460; first compound 0.01 µM) of 0.509, a relative viability (NCI-H460; first compound 0.03162 µM) of 0.48 and a relative viability (NCI-H460; first compound 0.1 µM) of 0.499. It also gave a relative viability (NCI-H460; first compound 0.3162 µM) of 0.472, a relative viability (NCI-H460; first compound 1 µM) of 0.51 and a relative viability (HCC-366; first compound 0.01 µM) of 0.331. It also gave a relative viability (HCC-366; first compound 0.03162 µM) of 0.365, a relative viability (HCC-366; first compound 0.1 µM) of 0.413 and a relative viability (HCC-366; first compound 0.3162 µM) of 0.348. For the same compound, the relative viability (HCC-366; first compound 1 µM) was 0.296, the relative viability (NCI-H1651; first compound 0.01 µM) was 0.563 and the relative viability (NCI-H1651; first compound 0.03162 µM) was 0.615. It also gave a relative viability (NCI-H1651; first compound 0.1 µM) of 0.593, a relative viability (NCI-H1651; first compound 0.3162 µM) of 0.642 and a relative viability (NCI-H1651; first compound 1 µM) of 0.61. It also gave a relative viability (NCI-H358; first compound 0.01 µM) of 0.222, a relative viability (NCI-H358; first compound 0.03162 µM) of 0.218 and a relative viability (NCI-H358; first compound 0.1 µM) of 0.218. It also gave a relative viability (NCI-H358; first compound 0.3162 µM) of 0.21, a relative viability (NCI-H358; first compound 1 µM) of 0.193 and a relative viability (NCI-H1734; first compound 0.01 µM) of 0.584. The relative viability (NCI-H1734; first compound 0.03162 µM) was 0.508, the relative viability (NCI-H1734; first compound 0.1 µM) was 0.536 and the relative viability (NCI-H1734; first compound 0.3162 µM) was 0.498. It also gave a relative viability (NCI-H1734; first compound 1 µM) of 0.517, a relative viability (NCI-H1975; first compound 0.01 µM) of 0.438 and a relative viability (NCI-H1975; first compound 0.03162 µM) of 0.4. For the same compound, the relative viability (NCI-H1975; first compound 0.1 µM) was 0.394, the relative viability (NCI-H1975; first compound 0.3162 µM) was 0.371 and the relative viability (NCI-H1975; first compound 1 µM) was 0.353. The relative viability (NCI-H2085; first compound 0.01 µM) was 0.591, the relative viability (NCI-H2085; first compound 0.03162 µM) was 0.519 and the relative viability (NCI-H2085; first compound 0.1 µM) was 0.526. For the same compound, the relative viability (NCI-H2085; first compound 0.3162 µM) was 0.614, the relative viability (NCI-H2085; first compound 1 µM) was 0.502 and the relative viability (NCI-H1793; first compound 0.01 µM) was 0.503. It also gave a relative viability (NCI-H1793; first compound 0.03162 µM) of 0.502, a relative viability (NCI-H1793; first compound 0.1 µM) of 0.564 and a relative viability (NCI-H1793; first compound 0.3162 µM) of 0.54. The relative viability (NCI-H1793; first compound 1 µM) was 0.443, the relative viability (NCI-H2023; first compound 0.01 µM) was 0.252 and the relative viability (NCI-H2023; first compound 0.03162 µM) was 0.224. The relative viability (NCI-H2023; first compound 0.1 µM) was 0.248, the relative viability (NCI-H2023; first compound 0.3162 µM) was 0.251 and the relative viability (NCI-H2023; first compound 1 µM) was 0.232. It also gave a relative viability (NCI-H838; first compound 0.01 µM) of 0.481, a relative viability (NCI-H838; first compound 0.03162 µM) of 0.49 and a relative viability (NCI-H838; first compound 0.1 µM) of 0.479. The relative viability (NCI-H838; first compound 0.3162 µM) was 0.482, the relative viability (NCI-H838; first compound 1 µM) was 0.478 and the relative viability (NCI-H1650; first compound 0.01 µM) was 0.362. It also gave a relative viability (NCI-H1650; first compound 0.03162 µM) of 0.384, a relative viability (NCI-H1650; first compound 0.1 µM) of 0.489 and a relative viability (NCI-H1650; first compound 0.3162 µM) of 0.53. For the same compound, the relative viability (NCI-H1650; first compound 1 µM) was 0.399, the relative viability (NCI-H441; first compound 0.01 µM) was 0.279 and the relative viability (NCI-H441; first compound 0.03162 µM) was 0.255. The relative viability (NCI-H441; first compound 0.1 µM) was 0.26, the relative viability (NCI-H441; first compound 0.3162 µM) was 0.208 and the relative viability (NCI-H441; first compound 1 µM) was 0.228. For the same compound, the relative viability (NCI-H2342; first compound 0.01 µM) was 0.631, the relative viability (NCI-H2342; first compound 0.03162 µM) was 0.652 and the relative viability (NCI-H2342; first compound 0.1 µM) was 0.774. It also gave a relative viability (NCI-H2342; first compound 0.3162 µM) of 0.726, a relative viability (NCI-H2342; first compound 1 µM) of 0.672 and a relative viability (NCI-H1355; first compound 0.01 µM) of 0.377. It also gave a relative viability (NCI-H1355; first compound 0.03162 µM) of 0.339, a relative viability (NCI-H1355; first compound 0.1 µM) of 0.409 and a relative viability (NCI-H1355; first compound 0.3162 µM) of 0.351. It also gave a relative viability (NCI-H1355; first compound 1 µM) of 0.352, a relative viability (COR-L23; first compound 0.01 µM) of 0.515 and a relative viability (COR-L23; first compound 0.03162 µM) of 0.434. It also gave a relative viability (COR-L23; first compound 0.1 µM) of 0.475, a relative viability (COR-L23; first compound 0.3162 µM) of 0.467 and a relative viability (COR-L23; first compound 1 µM) of 0.504. It also gave a relative viability (LOU-NH91; first compound 0.01 µM) of 0.774, a relative viability (LOU-NH91; first compound 0.03162 µM) of 0.794 and a relative viability (LOU-NH91; first compound 0.1 µM) of 0.83. For the same compound, the relative viability (LOU-NH91; first compound 0.3162 µM) was 0.827, the relative viability (LOU-NH91; first compound 1 µM) was 0.784 and the relative viability (BEN; first compound 0.01 µM) was 0.73. The relative viability (BEN; first compound 0.03162 µM) was 0.748, the relative viability (BEN; first compound 0.1 µM) was 0.589 and the relative viability (BEN; first compound 0.3162 µM) was 0.76. For the same compound, the relative viability (BEN; first compound 1 µM) was 0.664.
